Broadly, the MIC50 is an inhibitory concentration at the 50% level, which refers to growth in some studies and to a panel of isolates in others. A low value points to greater potency.

In brackets after ≈: the same amount, converted by molar mass.

Assay [1] concerns Escherichia coli. The experiment in a line: Antibacterial activity against Escherichia coli HB101 assessed as residual bacterial survival at 50 mg/L after 24 hrs by twofold serial dilution method. Format: functional. The note with it: HB101, 24 h.
The subject of assay [2] is Escherichia coli. Description: Antibacterial activity against Escherichia coli isolate 47 expressing qnr B19 gene assessed as residual bacterial survival at 50 mg/L after 24 hrs by twofold serial dilution method. The assay is classed as functional. To be noted: isolate 47, 24 h.
In assay [3] the test system is Escherichia coli. The experiment in a line: Antibacterial activity against Escherichia coli JM109 assessed as residual bacterial survival at 50 mg/L after 24 hrs by twofold serial dilution method. The assay is classed as functional. To be noted: JM109, JM 109, 24 h.
Assay [4] has as its system Klebsiella pneumoniae. The experiment in a line: Antimicrobial activity against Klebsiella pneumoniae isolate 92 assessed as drug uptake. Format: functional, organism-based.
Assay [5] has as its system Escherichia coli. The experiment in a line: Antibacterial activity against Escherichia coli isolate 21 after 24 hrs by twofold serial dilution method. Format: functional.
For assay [6], the system named is Escherichia coli. The experiment in a line: Antibacterial activity against Escherichia coli XL-1Blue assessed as residual bacterial survival at 50 mg/L after 24 hrs by twofold serial dilution method. The assay is classed as functional.
In assay [7] the test system is Klebsiella pneumoniae. Description: Antibacterial activity against Klebsiella pneumoniae isolate 92 assessed as residual bacterial survival at 50 mg/L after 24 hrs by twofold serial dilution method. Format: functional. The note with it: isolate 92, 24 h.
In assay [8] the test system is Klebsiella pneumoniae. The experiment in a line: Antibacterial activity against Klebsiella pneumoniae isolate 173 assessed as residual bacterial survival at 50 mg/L after 24 hrs by twofold serial dilution method. The assay is classed as functional. The note with it: isolate 173, 24 h.
Assay [9] has as its system Klebsiella pneumoniae. The experiment in a line: Antibacterial activity against Klebsiella pneumoniae isolate 91 after 24 hrs by twofold serial dilution method. Format: functional.
Assay [10] concerns Klebsiella pneumoniae. The experiment in a line: Antibacterial activity against Klebsiella pneumoniae isolate 370 expressing qnr B19 gene, GyrA D87G mutant assessed as residual bacterial survival at 50 mg/L after 24 hrs by twofold serial dilution method. The assay is classed as functional. The note with it: isolate 370, 24 h.
The test system of assay [11] is Escherichia coli. The experiment in a line: Antibacterial activity against Escherichia coli JM110 assessed as residual bacterial survival at 50 mg/L after 24 hrs by twofold serial dilution method. The note with it: JM110, 24 h. Format: functional.
Assay [12] relates to Escherichia coli. The experiment in a line: Antibacterial activity against Escherichia coli isolate 41 assessed as residual bacterial survival at 50 mg/L after 24 hrs by twofold serial dilution method. The assay is classed as functional. To be noted: isolate 41, 24 h.
The test system of assay [13] is Escherichia coli. The experiment in a line: Antibacterial activity against Escherichia coli isolate 47 expressing qnr B19 gene after 24 hrs by twofold serial dilution method. Format: functional.
The subject of assay [14] is Escherichia coli. The experiment in a line: Antibacterial activity against Escherichia coli isolate 85 expressing GyrA S83L mutant assessed as residual bacterial survival at 50 mg/L after 24 hrs by twofold serial dilution method. Format: functional. The note with it: isolate 85, 24 h.
Assay [15] concerns Klebsiella pneumoniae. The experiment in a line: Antibacterial activity against Klebsiella pneumoniae isolate 204 expressing qnr B19 gene assessed as residual bacterial survival at 50 mg/L after 24 hrs by twofold serial dilution method. The assay is classed as functional. The note with it: isolate 204, 24 h.

Turning to `CC(=O)O[C@@H]1[C@@H](C)O[C@@H](c2ccc3c(c2O)[C@@H](O)[C@]24O[C@@]2(C3=O)[C@@]2(O)C(=O)C=C(C)C[C@@]2(O)C[C@@H]4O)C[C@H]1OC(=O)/C=C/C=C/C=C/C=C/C(=O)Nc1c(O)c2ccc(O)c(Cl)c2oc1=O` [SIMOCYCLINONE D8], the survival at 50 µg/mL in the assay on Escherichia coli [1] was greater than 90%; with Escherichia coli [2], 44%; in the assay on Escherichia coli [3], greater than 90%; in the assay on Escherichia coli [6], greater than 90%; with Klebsiella pneumoniae [7], 77%; with Klebsiella pneumoniae [8], 83%. Further, the survival at 50 µg/mL is greater than 90% with Klebsiella pneumoniae [10]; greater than 90% in the assay with Escherichia coli [11]; 9% in the assay with Escherichia coli [12]; greater than 90% in the assay on Escherichia coli [14]; greater than 90% in the assay on Klebsiella pneumoniae [15]. Besides, the Drug uptake in the assay on Klebsiella pneumoniae [4] turned out to be 60 pmol. Besides, the results for the MIC50 against Escherichia coli [5], in the assay with Klebsiella pneumoniae [9] and against Escherichia coli [13] were greater than 100 µg/mL, greater than 100 µg/mL and 12 µg/mL (≈ 12.9 µM), respectively.
